Consider one compound from patent US8101200B2, “Targeted therapeutic agent release devices and methods of making and using the same” (Angiotech BioCoatings, Inc., priority 2000, dated 2012).

A short description of this series: Elution of paclitaxel from E3 Med Coat coated stents in phosphate buffered saline. The following applies: from E3 Med Coat stents (loading 50-60 μg), over a period of 14 days. The class given is physicochemical. On the procedure: Solution E3-PC was coated on stainless steel coronary stents, and dried for 60 minutes at 120° C. This layer was applied twice. Solution E3 —Med Coat was coated over the precoat layers, and dried for 60 minutes at 120° C. Drug loading on the stents in the range of 50-60 μg was achieved by applying the Med Coat three times. The stent samples with three layers of E3—Med Coat were subjected to elution in room temperature phosphate buffered saline for times up to 336 hours, and produced the results set forth in TABLE I.

The structures appear in SMILES notation.

On to `CC(=O)O[C@H]1C(=O)[C@@]2(C)[C@H]([C@H](OC(=O)c3ccccc3)[C@]3(O)C[C@H](OC(=O)[C@H](O)[C@@H](NC(=O)c4ccccc4)c4ccccc4)C(C)=C1C3(C)C)[C@]1(OC(C)=O)CO[C@@H]1C[C@@H]2O` [paclitaxel], for which the paclitaxel eluted out result is recorded as “approximately 10%”.
